Source: paper PMC9090415, “Discovery of small molecule inhibitors of Plasmodium falciparum apicoplast DNA polymerase” (Journal of Enzyme Inhibition and Medicinal Chemistry, 2022)

Biological target: P. falciparum apicoplast DNA polymerase (Pf-apPOL) (Plasmodium falciparum, UniProt Q8ILY1)
Test: Fluorescence-based high-throughput DNA polymerase assay (molecular beacon), primary screen and dose-response
Type: biochemical
How it was run: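 Single-point screening used 10 µM compound with 20 nM polymerase, 20 nM hairpin substrate and 6 µM dNTPs for 90 min at 25 °C. Confirmatory titrations (2.5–80 µM) followed fluorescence at three times, and IC50 was derived from a fit including a cooperativity term n.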

P. falciparum apicoplast DNA polymerase (Pf-apPOL), sequence (Q8ILY1 entry or part of it): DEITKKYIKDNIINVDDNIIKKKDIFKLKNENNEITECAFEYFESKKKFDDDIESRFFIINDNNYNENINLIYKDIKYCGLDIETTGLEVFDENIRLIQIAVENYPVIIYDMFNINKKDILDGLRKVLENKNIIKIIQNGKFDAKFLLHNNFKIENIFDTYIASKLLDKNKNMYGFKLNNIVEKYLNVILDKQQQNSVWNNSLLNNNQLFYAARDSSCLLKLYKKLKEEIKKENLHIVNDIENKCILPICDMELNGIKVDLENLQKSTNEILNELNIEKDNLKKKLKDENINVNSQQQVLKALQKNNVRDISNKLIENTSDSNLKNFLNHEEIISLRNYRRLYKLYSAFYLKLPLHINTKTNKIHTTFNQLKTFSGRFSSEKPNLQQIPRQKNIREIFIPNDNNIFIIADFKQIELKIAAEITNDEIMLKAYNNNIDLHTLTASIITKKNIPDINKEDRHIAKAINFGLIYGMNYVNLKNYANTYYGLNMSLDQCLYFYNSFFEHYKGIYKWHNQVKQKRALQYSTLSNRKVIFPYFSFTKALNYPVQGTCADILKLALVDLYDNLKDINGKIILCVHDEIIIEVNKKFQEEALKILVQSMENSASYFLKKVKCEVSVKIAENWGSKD

O=C(Nc1cccc(Cl)c1)Nc1nnc(-c2ccncc2)s1 [KU0022348]
% inhibition Apo pol 10' (DRC-1; 10'; concentration 2.5): 12.66% | % inhibition Apo pol 10' (DRC-1; 10'; concentration 5): -6.2957% | % inhibition Apo pol 10' (DRC-1; 10'; concentration 10): 19.819% | % inhibition Apo pol 10' (DRC-1; 10'; concentration 20): 75.3838% | % inhibition Apo pol 10' (DRC-1; 10'; concentration 40): 88.0392% | % inhibition Apo pol 10' (DRC-1; 10'; concentration 80): 86.8157% | % inhibition Apol 90' (DRC-1; 90'; concentration 2.5): 6.139% | % inhibition Apol 90' (DRC-1; 90'; concentration 5): -8.679% | % inhibition Apol 90' (DRC-1; 90'; concentration 10): 12.9186% | % inhibition Apol 90' (DRC-1; 90'; concentration 20): 70.4338% | % inhibition Apol 90' (DRC-1; 90'; concentration 40): 84.2961% | % inhibition Apol 90' (DRC-1; 90'; concentration 80): 86.1912% | % inhibition apPOL 180' (DRC-1; 180'; concentration 2.5): 0.3318% | % inhibition apPOL 180' (DRC-1; 180'; concentration 5): -11.6465% | % inhibition apPOL 180' (DRC-1; 180'; concentration 10): 5.454% | % inhibition apPOL 180' (DRC-1; 180'; concentration 20): 60.8254% | % inhibition apPOL 180' (DRC-1; 180'; concentration 40): 80.4807% | % inhibition apPOL 180' (DRC-1; 180'; concentration 80): 84.4697% | % inhibition Apo pol 5' (DRC-2; 5'; concentration 2.5): 16% | % inhibition Apo pol 5' (DRC-2; 5'; concentration 5): 32% | % inhibition Apo pol 5' (DRC-2; 5'; concentration 10): 46% | % inhibition Apo pol 5' (DRC-2; 5'; concentration 20): 47% | % inhibition Apo pol 5' (DRC-2; 5'; concentration 40): 48% | % inhibition Apo pol 5' (DRC-2; 5'; concentration 80): 40% | % inhibition Apol 40' (DRC-2; 40'; concentration 2.5): 18% | % inhibition Apol 40' (DRC-2; 40'; concentration 5): 42% | % inhibition Apol 40' (DRC-2; 40'; concentration 10): 64% | % inhibition Apol 40' (DRC-2; 40'; concentration 20): 66% | % inhibition Apol 40' (DRC-2; 40'; concentration 40): 71% | % inhibition Apol 40' (DRC-2; 40'; concentration 80): 57% | % inhibition ApPOL 90' (DRC-2; 90'; concentration 2.5): 16% | % inhibition ApPOL 90' (DRC-2; 90'; concentration 5): 41% | % inhibition ApPOL 90' (DRC-2; 90'; concentration 10): 65% | % inhibition ApPOL 90' (DRC-2; 90'; concentration 20): 67% | % inhibition ApPOL 90' (DRC-2; 90'; concentration 40): 73% | % inhibition ApPOL 90' (DRC-2; 90'; concentration 80): 64% | % inhibition apPOL 180' (DRC-2; 180'; concentration 2.5): 6% | % inhibition apPOL 180' (DRC-2; 180'; concentration 5): 30% | % inhibition apPOL 180' (DRC-2; 180'; concentration 10): 58% | % inhibition apPOL 180' (DRC-2; 180'; concentration 20): 60% | % inhibition apPOL 180' (DRC-2; 180'; concentration 40): 70% | % inhibition apPOL 180' (DRC-2; 180'; concentration 80): 65% | % inhibition Apo pol 5' (conc. 2.5; 5'; DRC-2): 16% | % inhibition ApPOL 90' (conc. 2.5; 90'; DRC-2): 16% | % inhibition Apol 40' (conc. 10; 40'; DRC-2): 64% | % inhibition ApPOL 90' (conc. 10; 90'; DRC-2): 65% | % inhibition ApPOL 90' (conc. 80; 90'; DRC-2): 64% | % inhibition apPOL 180' (conc. 80; 180'; DRC-2): 65% | DNA Pol (primary screen value by plate and well; 90 min, 10 µM): 61 | DNA Pol (primary screen value of the 186 hits; unit not given; 90 min, 10 µM): 61

Cc1ccc(NC(=O)Cn2ccc3c(=O)[nH]ccc32)cc1 [Molecule 50]
IC50 (supplemental file 2, sheet IC50 nontoxic compounds; Pf-apPOL): 13.7 µM

COc1ccccc1CCC(=O)N1CCc2c(nc3cc(-c4ccccc4)[nH]n3c2=O)C1 [Molecule 7, COc1ccccc1CCC(=O)N1CCc2c(C1)nc1n(c2=O)[nH]c(c1)c1ccccc1]
DNA Pol ('DNA Pol'; screening value, unit not given; 90 min, 10 µM): 40 | % inhibition Apo pol 10' (DRC-1; 10'; concentration 2.5): 2.75% | % inhibition Apo pol 10' (DRC-1; 10'; concentration 5): 18% | % inhibition Apo pol 10' (DRC-1; 10'; concentration 10): 67% | % inhibition Apo pol 10' (DRC-1; 10'; concentration 20): 82% | % inhibition Apo pol 10' (DRC-1; 10'; concentration 40): 78% | % inhibition Apo pol 10' (DRC-1; 10'; concentration 80): 59% | % inhibition Apol 90' (DRC-1; 90'; concentration 2.5): 0.0541% | % inhibition Apol 90' (DRC-1; 90'; concentration 5): 9% | % inhibition Apol 90' (DRC-1; 90'; concentration 10): 54% | % inhibition Apol 90' (DRC-1; 90'; concentration 20): 73% | % inhibition Apol 90' (DRC-1; 90'; concentration 40): 72% | % inhibition Apol 90' (DRC-1; 90'; concentration 80): 63% | % inhibition apPOL 180' (DRC-1; 180'; concentration 2.5): -3.58% | % inhibition apPOL 180' (DRC-1; 180'; concentration 5): 1.16% | % inhibition apPOL 180' (DRC-1; 180'; concentration 10): 38% | % inhibition apPOL 180' (DRC-1; 180'; concentration 20): 59% | % inhibition apPOL 180' (DRC-1; 180'; concentration 40): 58% | % inhibition apPOL 180' (DRC-1; 180'; concentration 80): 49% | % inhibition Apo pol 5' (DRC-2, 5', concentration 2.5): 6% | % inhibition Apo pol 5' (DRC-2, 5', concentration 5): 26% | % inhibition Apo pol 5' (DRC-2, 5', concentration 10): 48% | % inhibition Apo pol 5' (DRC-2, 5', concentration 20): 51% | % inhibition Apo pol 5' (DRC-2, 5', concentration 40): 44% | % inhibition Apo pol 5' (DRC-2, 5', concentration 80): 21% | % inhibition Apol 40' (DRC-2, 40', concentration 2.5): 5.58% | % inhibition Apol 40' (DRC-2, 40', concentration 5): 30% | % inhibition Apol 40' (DRC-2, 40', concentration 10): 57% | % inhibition Apol 40' (DRC-2, 40', concentration 20): 64% | % inhibition Apol 40' (DRC-2, 40', concentration 40): 61% | % inhibition Apol 40' (DRC-2, 40', concentration 80): 44% | % inhibition ApPOL 90' (DRC-2, 90', concentration 2.5): 5% | % inhibition ApPOL 90' (DRC-2, 90', concentration 5): 28% | % inhibition ApPOL 90' (DRC-2, 90', concentration 10): 57% | % inhibition ApPOL 90' (DRC-2, 90', concentration 20): 65% | % inhibition ApPOL 90' (DRC-2, 90', concentration 40): 62% | % inhibition ApPOL 90' (DRC-2, 90', concentration 80): 47% | % inhibition apPOL 180' (DRC-2, 180', concentration 2.5): 3% | % inhibition apPOL 180' (DRC-2, 180', concentration 5): 21% | % inhibition apPOL 180' (DRC-2, 180', concentration 10): 48% | % inhibition apPOL 180' (DRC-2, 180', concentration 20): 59% | % inhibition apPOL 180' (DRC-2, 180', concentration 40): 55% | % inhibition apPOL 180' (DRC-2, 180', concentration 80): 41% | % inhibition apPOL 180' (conc 5 (unit not given); 180'; DRC-2): 21% | % inhibition Apo pol 5' (conc 10 (unit not given); 5'; DRC-2): 48% | % inhibition Apol 40' (conc 10 (unit not given); 40'; DRC-2): 57% | % inhibition ApPOL 90' (conc 10 (unit not given); 90'; DRC-2): 57% | % inhibition apPOL 180' (conc 10 (unit not given); 180'; DRC-2): 48% | % inhibition apPOL 180' (conc 20 (unit not given); 180'; DRC-2): 59% | % inhibition apPOL 180' (conc 20 (unit not given); 180'; first dose-response set): 59% | % inhibition Apo pol 5' (conc 40 (unit not given); 5'; DRC-2): 44% | % inhibition Apo pol 5' (conc 80 (unit not given); 5'; DRC-2): 21% | % inhibition Apo pol 10' (conc 80 (unit not given); 10'; first dose-response set): 59% | % inhibition Apol 40' (conc 80 (unit not given); 40'; DRC-2): 44% | DNA Pol (primary screen hit value, DNA Pol (186 hits); 90 min, 10 µM): 40
